We go through nine compounds from patent publication US20090099029A1, “Methods and substrates for conducting assays” (Invitrogen Corporation, priority 2005, published 2009).

For test [1], the target named is kinases of Table 5 (Homo sapiens, UniProt O75716). Nature of the test: Further analysis of a plurality of inhibitors and a plurality of kinases (Table 5 inhibition results). Further details: scale not given here. It is filed as biochemical. The following applies: kinase STK16 (Part I, plate C3, Domain 1). From the text:
(§1) The wash solution is then discarded.

Test [2] concerns the target T1, kinases of Table 5 (Homo sapiens, UniProt P54753).
T1 sequence (P54753 34-998): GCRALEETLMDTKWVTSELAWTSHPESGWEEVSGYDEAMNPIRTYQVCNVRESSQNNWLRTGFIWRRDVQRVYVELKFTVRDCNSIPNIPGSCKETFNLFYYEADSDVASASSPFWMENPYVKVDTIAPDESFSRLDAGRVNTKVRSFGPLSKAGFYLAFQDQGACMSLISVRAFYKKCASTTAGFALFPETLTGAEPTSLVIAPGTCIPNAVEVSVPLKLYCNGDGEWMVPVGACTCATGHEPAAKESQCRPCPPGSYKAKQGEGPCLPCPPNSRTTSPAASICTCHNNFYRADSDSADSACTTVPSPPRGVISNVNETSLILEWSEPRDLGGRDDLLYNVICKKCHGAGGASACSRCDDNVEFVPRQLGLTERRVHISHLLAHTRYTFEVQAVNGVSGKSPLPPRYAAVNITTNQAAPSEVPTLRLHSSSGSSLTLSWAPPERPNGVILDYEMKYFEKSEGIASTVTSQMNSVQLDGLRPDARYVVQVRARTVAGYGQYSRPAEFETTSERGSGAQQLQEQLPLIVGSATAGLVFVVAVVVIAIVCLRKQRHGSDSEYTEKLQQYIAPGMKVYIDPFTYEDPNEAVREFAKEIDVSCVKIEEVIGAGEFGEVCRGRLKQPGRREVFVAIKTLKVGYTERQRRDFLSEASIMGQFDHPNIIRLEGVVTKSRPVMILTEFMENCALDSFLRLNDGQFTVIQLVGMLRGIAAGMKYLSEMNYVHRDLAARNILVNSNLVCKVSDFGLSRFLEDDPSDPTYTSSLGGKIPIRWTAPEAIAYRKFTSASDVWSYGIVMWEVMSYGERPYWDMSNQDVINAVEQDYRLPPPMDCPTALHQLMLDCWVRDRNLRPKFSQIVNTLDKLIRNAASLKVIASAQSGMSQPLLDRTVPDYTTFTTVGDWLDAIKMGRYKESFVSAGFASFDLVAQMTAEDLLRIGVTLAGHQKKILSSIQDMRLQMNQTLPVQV
The test is described as above. In kind it is biochemical. More on the design: scale not given here. The following applies: for Inhibition level: kinase EPHB3; for Inhibition Results (Level): kinase EPHB3 (Part II, plate B5, Domain 1).
Source text: as §1

Test [3] addresses kinases of Table 5 (Homo sapiens, UniProt P00519). Described as above. In kind it is biochemical. More on the design: scale not given here. The following applies: for Inhibition level: kinase ABL1; for Inhibition Results (Level): kinase ABL1 (Part II, plate B6, Domain 1).
Source text: as §1

Test [4] deals with kinases of Table 5 (Homo sapiens, UniProt P21802). The test is described as above. The following applies: for Inhibition level: kinase FGFR2. It is filed as biochemical. Further details: scale not given here.
Sequence of kinases of Table 5 (Homo sapiens, UniProt P21802) (P21802 22-821): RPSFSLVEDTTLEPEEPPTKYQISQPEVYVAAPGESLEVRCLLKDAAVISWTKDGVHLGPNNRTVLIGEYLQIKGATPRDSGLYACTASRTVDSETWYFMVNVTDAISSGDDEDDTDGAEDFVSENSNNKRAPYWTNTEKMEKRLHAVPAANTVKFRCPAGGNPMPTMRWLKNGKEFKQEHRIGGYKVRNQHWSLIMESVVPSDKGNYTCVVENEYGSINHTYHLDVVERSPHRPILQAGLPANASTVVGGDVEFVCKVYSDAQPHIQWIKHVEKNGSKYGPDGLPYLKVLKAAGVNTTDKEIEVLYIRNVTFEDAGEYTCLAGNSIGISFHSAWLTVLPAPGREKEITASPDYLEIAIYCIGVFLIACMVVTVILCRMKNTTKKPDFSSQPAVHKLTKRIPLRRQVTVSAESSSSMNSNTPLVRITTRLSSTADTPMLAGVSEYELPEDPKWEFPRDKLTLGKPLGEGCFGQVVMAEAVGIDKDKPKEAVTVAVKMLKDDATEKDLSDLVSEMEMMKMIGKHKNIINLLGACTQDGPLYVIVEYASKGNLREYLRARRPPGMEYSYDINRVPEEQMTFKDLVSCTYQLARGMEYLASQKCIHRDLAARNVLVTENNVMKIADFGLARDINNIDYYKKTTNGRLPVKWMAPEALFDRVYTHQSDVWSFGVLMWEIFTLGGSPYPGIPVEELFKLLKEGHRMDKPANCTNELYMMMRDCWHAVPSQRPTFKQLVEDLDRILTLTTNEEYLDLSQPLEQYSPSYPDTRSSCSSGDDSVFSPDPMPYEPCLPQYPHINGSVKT
Source text: as §1

For test [5], the target named is kinases of Table 5 (Homo sapiens, UniProt P16591). The description is as above. In kind it is biochemical. Further details: scale not given here. The following applies: inhibitor 100 uM; for Inhibition level: kinase FER; for Inhibition Results (Level): kinase FER (Part II, plate H5, Domain 1).
Sequence of kinases of Table 5 (Homo sapiens, UniProt P16591) (P16591 whole entry): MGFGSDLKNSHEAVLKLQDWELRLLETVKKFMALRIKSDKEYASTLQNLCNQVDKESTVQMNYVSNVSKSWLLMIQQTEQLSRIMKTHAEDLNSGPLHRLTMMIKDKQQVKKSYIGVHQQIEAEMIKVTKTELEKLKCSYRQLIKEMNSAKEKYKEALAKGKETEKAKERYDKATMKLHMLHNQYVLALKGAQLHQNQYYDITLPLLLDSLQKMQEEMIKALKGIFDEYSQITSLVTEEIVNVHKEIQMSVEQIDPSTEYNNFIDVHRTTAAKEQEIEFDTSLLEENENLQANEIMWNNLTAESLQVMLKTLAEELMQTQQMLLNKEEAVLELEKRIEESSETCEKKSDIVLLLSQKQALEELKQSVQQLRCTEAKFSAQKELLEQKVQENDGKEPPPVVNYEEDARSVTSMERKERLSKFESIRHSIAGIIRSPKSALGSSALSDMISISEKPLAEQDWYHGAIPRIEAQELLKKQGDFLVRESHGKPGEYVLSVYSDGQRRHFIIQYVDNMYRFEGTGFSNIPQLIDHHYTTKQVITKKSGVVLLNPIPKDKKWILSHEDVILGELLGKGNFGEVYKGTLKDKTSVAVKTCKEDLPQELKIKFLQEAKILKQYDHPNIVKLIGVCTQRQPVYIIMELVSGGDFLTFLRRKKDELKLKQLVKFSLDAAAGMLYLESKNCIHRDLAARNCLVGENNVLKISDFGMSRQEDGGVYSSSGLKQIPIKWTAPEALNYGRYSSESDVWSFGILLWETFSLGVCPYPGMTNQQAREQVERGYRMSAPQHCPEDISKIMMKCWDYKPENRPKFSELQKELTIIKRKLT
Source text: as §1

Test [6] has as its target kinases of Table 5 (Homo sapiens, UniProt Q13627). The test is described as above. More on the design: scale not given here. In kind it is biochemical. The conditions noted are these: kinase DYRK1A (Part I, plate G6, Domain 1).
Source text: as §1

Test [7] addresses T2, kinases of Table 5 (Homo sapiens, UniProt P54762).
T2 sequence (P54762 18-984): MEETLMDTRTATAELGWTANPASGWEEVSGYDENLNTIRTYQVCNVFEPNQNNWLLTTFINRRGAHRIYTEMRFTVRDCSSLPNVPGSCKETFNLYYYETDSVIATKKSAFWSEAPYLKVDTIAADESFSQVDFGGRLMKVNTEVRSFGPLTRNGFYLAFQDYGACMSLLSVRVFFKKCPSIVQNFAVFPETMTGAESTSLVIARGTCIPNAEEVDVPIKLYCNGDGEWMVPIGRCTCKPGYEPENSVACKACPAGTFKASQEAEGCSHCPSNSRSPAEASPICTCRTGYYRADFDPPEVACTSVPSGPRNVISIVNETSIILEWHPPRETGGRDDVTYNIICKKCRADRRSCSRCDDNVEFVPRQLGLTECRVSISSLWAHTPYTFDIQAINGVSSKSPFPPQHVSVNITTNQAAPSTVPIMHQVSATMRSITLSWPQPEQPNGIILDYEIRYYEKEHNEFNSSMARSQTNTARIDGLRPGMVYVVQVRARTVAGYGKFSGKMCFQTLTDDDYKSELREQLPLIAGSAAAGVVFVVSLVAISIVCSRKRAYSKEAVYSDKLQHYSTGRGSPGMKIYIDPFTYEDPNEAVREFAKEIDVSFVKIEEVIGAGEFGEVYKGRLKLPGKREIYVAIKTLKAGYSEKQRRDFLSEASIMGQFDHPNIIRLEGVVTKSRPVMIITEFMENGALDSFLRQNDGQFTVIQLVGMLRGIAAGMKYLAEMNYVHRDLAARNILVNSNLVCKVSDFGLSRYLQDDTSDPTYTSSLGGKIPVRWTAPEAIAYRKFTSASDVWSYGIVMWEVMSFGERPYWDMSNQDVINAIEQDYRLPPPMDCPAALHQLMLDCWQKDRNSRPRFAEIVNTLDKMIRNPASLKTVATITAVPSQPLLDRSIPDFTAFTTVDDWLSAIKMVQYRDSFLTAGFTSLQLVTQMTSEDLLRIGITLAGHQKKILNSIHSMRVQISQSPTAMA
Described as above. The conditions noted are these: for Inhibition Results (Level): kinase EPHB1 (Part II, plate B8, Domain 1). More on the design: scale not given here. It is filed as biochemical.
Source text: as §1

The target of test [8] is kinases of Table 5 (Homo sapiens, UniProt P24723). The test is described as above. In kind it is biochemical. More on the design: scale not given here. The following applies: for Inhibition level: kinase PRKCH; for Inhibition Results (Level): kinase PRKCH (Part II, plate B3, Domain 0).
Sequence of kinases of Table 5 (Homo sapiens, UniProt P24723) (P24723 whole entry): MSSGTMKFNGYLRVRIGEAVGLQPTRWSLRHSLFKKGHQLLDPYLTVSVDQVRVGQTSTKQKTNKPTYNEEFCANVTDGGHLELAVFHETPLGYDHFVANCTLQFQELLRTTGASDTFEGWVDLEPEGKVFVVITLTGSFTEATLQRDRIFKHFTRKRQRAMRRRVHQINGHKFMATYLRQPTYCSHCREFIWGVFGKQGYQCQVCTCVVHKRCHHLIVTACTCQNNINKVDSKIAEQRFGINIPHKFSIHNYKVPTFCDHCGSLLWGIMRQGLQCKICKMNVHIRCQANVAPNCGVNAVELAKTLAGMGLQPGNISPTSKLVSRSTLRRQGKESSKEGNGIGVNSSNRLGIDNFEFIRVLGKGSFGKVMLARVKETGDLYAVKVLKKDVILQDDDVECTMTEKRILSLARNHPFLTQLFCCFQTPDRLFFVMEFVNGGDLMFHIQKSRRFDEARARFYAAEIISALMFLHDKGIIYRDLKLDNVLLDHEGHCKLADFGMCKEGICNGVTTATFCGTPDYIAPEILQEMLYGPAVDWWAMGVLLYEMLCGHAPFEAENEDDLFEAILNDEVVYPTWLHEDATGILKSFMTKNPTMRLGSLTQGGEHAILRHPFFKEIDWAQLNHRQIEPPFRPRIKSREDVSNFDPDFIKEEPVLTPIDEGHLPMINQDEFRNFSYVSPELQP
Source text: as §1

Test [9] deals with 39 kinases (Table 4). The conditions noted are these: known general specificities of the inhibitors; cited from earlier work.
Setting [10] is: kinase FGFR2 (Part I, plate G8, Domain 1), inhibitor 100 uM.
Where [11] appears, read: kinase EPHB1, concentration not given.
Setting [12] is: kinase FGFR2 (Part II, plate B4, Domain 1), inhibitor 100 uM.

Like-named read-outs stand apart in the source and are kept apart here.

Sequence of kinases of Table 5 (Homo sapiens, UniProt P00519) (P00519 whole entry): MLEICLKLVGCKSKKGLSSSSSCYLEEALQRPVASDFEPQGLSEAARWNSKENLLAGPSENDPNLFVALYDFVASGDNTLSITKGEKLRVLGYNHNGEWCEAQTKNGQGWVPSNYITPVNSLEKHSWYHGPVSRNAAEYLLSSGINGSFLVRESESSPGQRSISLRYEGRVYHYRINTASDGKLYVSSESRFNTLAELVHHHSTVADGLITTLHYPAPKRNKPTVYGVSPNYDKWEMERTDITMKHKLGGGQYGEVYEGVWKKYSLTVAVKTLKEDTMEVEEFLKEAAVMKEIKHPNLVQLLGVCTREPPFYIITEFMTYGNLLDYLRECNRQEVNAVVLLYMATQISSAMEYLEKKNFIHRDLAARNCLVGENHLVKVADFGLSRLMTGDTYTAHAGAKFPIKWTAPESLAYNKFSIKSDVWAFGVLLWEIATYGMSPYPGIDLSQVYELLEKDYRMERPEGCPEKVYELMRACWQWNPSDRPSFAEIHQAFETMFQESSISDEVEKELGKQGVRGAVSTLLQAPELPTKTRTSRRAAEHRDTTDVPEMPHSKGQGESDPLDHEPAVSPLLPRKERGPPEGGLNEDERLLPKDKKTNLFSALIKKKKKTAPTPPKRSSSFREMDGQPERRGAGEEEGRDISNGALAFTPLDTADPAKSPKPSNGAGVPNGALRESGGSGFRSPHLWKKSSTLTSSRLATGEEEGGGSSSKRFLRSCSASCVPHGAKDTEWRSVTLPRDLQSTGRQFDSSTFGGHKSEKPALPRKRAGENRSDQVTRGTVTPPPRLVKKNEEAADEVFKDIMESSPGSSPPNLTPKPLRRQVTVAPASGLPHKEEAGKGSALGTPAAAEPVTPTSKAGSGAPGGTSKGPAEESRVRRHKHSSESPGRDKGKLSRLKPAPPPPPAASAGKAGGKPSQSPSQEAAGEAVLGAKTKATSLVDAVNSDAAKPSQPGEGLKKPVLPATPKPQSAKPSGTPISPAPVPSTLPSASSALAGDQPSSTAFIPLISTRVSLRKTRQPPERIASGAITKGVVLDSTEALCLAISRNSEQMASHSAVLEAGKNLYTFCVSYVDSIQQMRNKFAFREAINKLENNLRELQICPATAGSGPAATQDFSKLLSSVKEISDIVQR
Sequence of kinases of Table 5 (Homo sapiens, UniProt O75716) (O75716 whole entry): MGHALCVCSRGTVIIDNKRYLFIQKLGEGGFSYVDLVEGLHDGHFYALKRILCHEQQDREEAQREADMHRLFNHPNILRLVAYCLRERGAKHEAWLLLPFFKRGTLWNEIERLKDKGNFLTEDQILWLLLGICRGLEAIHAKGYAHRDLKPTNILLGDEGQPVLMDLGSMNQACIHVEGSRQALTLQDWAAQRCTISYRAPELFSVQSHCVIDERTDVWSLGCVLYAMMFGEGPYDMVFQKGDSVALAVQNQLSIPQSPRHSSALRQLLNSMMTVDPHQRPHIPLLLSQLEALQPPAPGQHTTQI

For the compound `N#C/C(=C/c1ccc(O)c(O)c1)C(=O)NCc1ccccc1` [AG 490], the “Inhibition Results (Level)” value in test [1] (inhibitor 100 uM) turned out to be 0; in test [4] (setting [10]), 2; in test [6] (inhibitor 100 uM), 2. In addition, the Inhibition level in test [2] (inhibitor 100 uM) amounted to 2; in test [3] (inhibitor 100 uM) it was 0; in test [4] (inhibitor 100 uM), 2; in test [5], 2; in test [7] (kinase EPHB1, inhibitor 100 uM) it was 0; in [8] (inhibitor 100 uM), 2. Further, in [9], the “General Specificity” value is “Tyrosine”.

For `COc1cc2ncnc(Nc3cccc(Cl)c3)c2cc1OC` [AG 1478], the “Inhibition Results (Level)” value in test [1] (inhibitor 100 uM) was 0; in test [4] (setting [10]) it was 2; in [6] (inhibitor 100 uM), 0. Further, the Inhibition level is 2 in test [2] (inhibitor 100 uM); 1 in [3] (inhibitor 100 uM); 2 in test [4] (inhibitor 100 uM); 1 in [5]; 2 in [7] (kinase EPHB1, inhibitor 100 uM); 0 in test [8] (inhibitor 100 uM).

Regarding `O=c1c(-c2ccc(O)cc2)coc2cc(O)cc(O)c12` [Genistein], the “Inhibition Results (Level)” value in [1] (inhibitor 100 uM) worked out at 0; in [1] (inhibitor <3.7 mM) it was 0; in [4] (setting [10]), 2; in test [4] (kinase FGFR2 (Part I, plate G8, Domain 1), inhibitor <3.7 mM), 0; in test [6] (inhibitor 100 uM), 2; in [6] (inhibitor <3.7 mM), 1. For the same compound, the Inhibition level is recorded as 0 in [2] (concentration not given); 2 in [2] (inhibitor 100 uM); 0 in test [3] (concentration not given); 0 in test [3] (inhibitor 100 uM); 1 in test [4] (concentration not given); 2 in test [4] (inhibitor 100 uM). In addition, the Inhibition level stood at 2 in test [5]; 0 in test [7] (setting [11]); 1 in test [7] (kinase EPHB1, inhibitor 100 uM); 0 in [8] (concentration not given); 2 in [8] (inhibitor 100 uM). In addition, the “General Specificity” value in [9] was “Tyrosine”.

For `O=S(=O)(NCCNC/C=C/c1ccc(Br)cc1)c1cccc2cnccc12` [H-89], the “Inhibition Results (Level)” value in test [1] (inhibitor 100 uM) turned out to be 2; in [2] (inhibitor 100 uM), 1; in test [3] (inhibitor 100 uM), 0; in test [4] (setting [10]) it was 2; in test [4] (setting [12]) it was 2; in test [5] it was 2. Also, the entries for the “Inhibition Results (Level)” value in [6] (inhibitor 100 uM), in test [7] (inhibitor 100 uM) and in [8] (inhibitor 100 uM) were 2, 1 and 2, respectively. The “General Specificity” value in test [9] is recorded as “Serine/threonine”.

For `CC(C)(C)n1nc(-c2ccc(Cl)cc2)c2c(N)ncnc21` [PP2], the “Inhibition Results (Level)” value is listed as 2 in test [1] (inhibitor 100 uM), 2 in [4] (setting [10]) and 1 in test [6] (inhibitor 100 uM). Also, the Inhibition level in test [2] (inhibitor 100 uM) came out at 2; in test [4] (inhibitor 100 uM), 2; in test [5], 2; in test [7] (kinase EPHB1, inhibitor 100 uM), 2; in test [8] (inhibitor 100 uM), 2. Moreover, the “General Specificity” value in test [9] is listed as “Tyrosine”.

On to `O=c1c(O)c(-c2ccc(O)c(O)c2)oc2cc(O)cc(O)c12` [Quercetin], for which the “Inhibition Results (Level)” value in test [1] (inhibitor 100 uM) is listed as 0; in [2] (inhibitor 100 uM), 2; in test [4] (setting [10]), 0; in [4] (setting [12]) it was 0; in test [5], 1; in test [7] (inhibitor 100 uM), 0. Also, in [8] (inhibitor 100 uM), the “Inhibition Results (Level)” value is on record as 0.

Turning to `Cn1cc(C2=C(c3cn(CCCSC(=N)N)c4ccccc34)C(=O)NC2=O)c2ccccc21` [Ro-31-8220], the “Inhibition Results (Level)” value in test [1] (inhibitor 90 uM) is 2; in [1] (inhibitor 100 uM) it was 1; in test [4] (kinase FGFR2 (Part I, plate G8, Domain 1), inhibitor 90 uM) it was 2; in test [4] (setting [10]), 2; in [6] (inhibitor 90 uM), 0; in test [6] (inhibitor 100 uM) it was 2. For the same compound, the Inhibition level in test [2] (concentration not given) amounted to 0; in [2] (inhibitor 100 uM), 2; in test [3] (concentration not given), 0; in test [3] (inhibitor 100 uM), 2; in test [4] (concentration not given), 0; in [4] (inhibitor 100 uM), 2. For the same compound, the Inhibition level amounted to 2 in [5]; 2 in test [7] (setting [11]); 0 in test [7] (kinase EPHB1, inhibitor 100 uM); 2 in test [8] (concentration not given); 2 in [8] (inhibitor 100 uM). In test [9], the “General Specificity” value is listed as “Serine/threonine”.

For `CC(=O)c1c(O)c(C)c(O)c(Cc2c(O)c3c(c(C(=O)/C=C/c4ccccc4)c2O)OC(C)(C)C=C3)c1O` [Rottlerin (Mallotoxin)], the “Inhibition Results (Level)” value in [1] (inhibitor 100 uM) came out at 0; in test [2] (inhibitor 100 uM), 2; in test [3] (inhibitor 100 uM), 0; in [4] (setting [10]), 2; in test [4] (setting [12]), 0; in [5] it was 2. For the same compound, the “Inhibition Results (Level)” value in test [6] (inhibitor 100 uM) amounted to 0; in [7] (inhibitor 100 uM), 1; in test [8] (inhibitor 100 uM) it was 2.

As for `CN[C@@H]1C[C@H]2O[C@@](C)([C@@H]1OC)n1c3ccccc3c3c4c(c5c6ccccc6n2c5c31)C(=O)NC4` [Staurosporine], the “Inhibition Results (Level)” value in test [1] (inhibitor 21.5 uM) turned out to be 2. Besides, the Inhibition level in test [2] (concentration not given) stood at 0; in [7] it was 2. The “General Specificity” value in [9] is given as “Broad”.
